Laboratory results reported in patent publication US20240173344A1, “USE OF GABAA RECEPTOR AS TARGET IN PREPARATION OR SCREENING OF DRUG FOR LOWERING BLOOD LIPID LEVEL, TREATING OBESITY, AND/OR IMPROVING METABOLISM” (SHANGHAI INSTITUTE OF ENDOCRINE AND METABOLIC DISEASES, priority 2022, published 2024).
Several values for one entry are separate records, joined by “and”; a condition that tells them apart may be missing. Equal values may be shown once.

How the values were obtained:
obese mouse model = assay: Intraperitoneal puerarin for 20 d in high-fat-diet obese mouse model: body weight, blood lipid, jejunal TG, c-fos staining, oil red O staining; assay type: in vivo, C57BL/6J mice; settings: brain slice c-fos immunofluorescence, puerarin i.p. 20 d vs control group
Method: The C57BL/6J mice were used as experimental mice in the present disclosure. The experimental mice each were raised in an SPF-level environment at 22° C. to 24° C. with a 12:12 circadian rhythm, and the experimental mice each were subjected to anaesthesia, analgesia, surgery, intraperitoneal injection, and other experimental operations in accordance with the relevant provisions of animal ethics.
In the present disclosure, the mice were fed with a high-fat diet in which a mass percentage of fat was 60% for 12 weeks, and when a body weight reached 35 g or more, animal models of alimentary obesity were successfully constructed. At a formal stage of the experiment (starting on day 0 in FIG. 1A, FIG. 3A, FIG. 6A, and FIG. 7A), the mice were raised in single cages, during which a daily food intake of each mouse model was accurately recorded, the feces was collected before and after drug intervention, and a daily body weight curve was recorded.
A method for determining TG in a sample was as follows: 20 mg to 30 mg of a sample was first weighed, a 5% NP40-containing lysis buffer was added, and a resulting mixture was homogenated and incubated in a metal bath at 95° C. for 5 min, which was repeated twice. […] 2 μl of the supernatant was added to each well, and after a chromogenic reaction was completed, a value of each well was determined by a microplate reader. […]

[1] = target: T1, α1 subunit of the GABAA receptor (Gabra1) in the DMV (Mus musculus, UniProt P22723+P62812); assay: DMV-specific knockdown of Gabra1 to block puerarin in obese mouse model: body weight, blood lipid, jejunal TG, c-fos; assay type: in vivo, mice; settings: for Body weight curve change percentage: single mice and mean
T1 construct: from tissue; host or cells: brainstem DMV of living obese mice
T1 sequence (P62812 28-455): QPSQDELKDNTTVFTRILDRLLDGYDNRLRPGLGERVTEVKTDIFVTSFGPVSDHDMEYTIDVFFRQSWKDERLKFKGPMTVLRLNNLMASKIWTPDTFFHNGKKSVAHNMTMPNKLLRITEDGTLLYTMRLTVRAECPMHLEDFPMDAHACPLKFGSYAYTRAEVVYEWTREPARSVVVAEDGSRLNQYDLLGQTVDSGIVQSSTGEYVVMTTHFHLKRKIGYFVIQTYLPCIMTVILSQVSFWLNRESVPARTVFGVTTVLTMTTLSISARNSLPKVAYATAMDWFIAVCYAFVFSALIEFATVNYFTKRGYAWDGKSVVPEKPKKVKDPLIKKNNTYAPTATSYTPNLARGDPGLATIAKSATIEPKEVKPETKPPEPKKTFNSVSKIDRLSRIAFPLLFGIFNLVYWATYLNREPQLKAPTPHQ
T1 sequence (P63080 26-473 partner): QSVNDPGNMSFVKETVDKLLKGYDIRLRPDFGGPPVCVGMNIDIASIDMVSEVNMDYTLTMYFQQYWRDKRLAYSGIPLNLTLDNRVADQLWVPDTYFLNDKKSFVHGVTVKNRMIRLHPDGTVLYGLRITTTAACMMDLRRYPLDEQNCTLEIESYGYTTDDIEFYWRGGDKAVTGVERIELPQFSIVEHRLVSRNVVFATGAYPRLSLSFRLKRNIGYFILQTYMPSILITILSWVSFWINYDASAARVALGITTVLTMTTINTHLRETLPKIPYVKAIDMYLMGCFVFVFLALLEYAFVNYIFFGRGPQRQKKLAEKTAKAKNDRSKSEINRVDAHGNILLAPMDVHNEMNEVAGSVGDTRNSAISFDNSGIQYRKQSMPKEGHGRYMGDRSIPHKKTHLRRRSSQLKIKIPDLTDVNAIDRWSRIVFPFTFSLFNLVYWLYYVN
T1 sequence (P22723 39-474): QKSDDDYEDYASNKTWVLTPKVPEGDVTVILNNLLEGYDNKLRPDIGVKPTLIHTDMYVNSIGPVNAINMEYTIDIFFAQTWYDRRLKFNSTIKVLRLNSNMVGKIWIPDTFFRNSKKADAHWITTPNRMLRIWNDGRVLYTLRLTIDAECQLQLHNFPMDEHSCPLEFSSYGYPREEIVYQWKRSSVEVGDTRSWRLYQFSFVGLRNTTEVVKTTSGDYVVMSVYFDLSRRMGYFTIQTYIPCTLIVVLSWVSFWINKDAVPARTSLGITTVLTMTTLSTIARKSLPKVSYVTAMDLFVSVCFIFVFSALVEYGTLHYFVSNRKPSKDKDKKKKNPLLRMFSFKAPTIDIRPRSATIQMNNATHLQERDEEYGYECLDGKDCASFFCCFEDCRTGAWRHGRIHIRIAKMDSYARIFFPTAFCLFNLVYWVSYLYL

[2] = target: T2, γ2 subunit of the GABAA receptor (Gabrg2) in the DMV (Mus musculus, UniProt P22723+P62812); assay: DMV-specific knockdown of Gabrg2 to block puerarin in obese mouse model: body weight, blood lipid, jejunal TG, c-fos; assay type: in vivo, mice; settings: for Body weight curve change percentage / Jejunal TG level / Blood lipid level: single mice and mean
T2 construct: from tissue; host or cells: brainstem DMV of living obese mice
T2 sequence (P22723 39-474): as above
T2 sequence (P62812 28-455): as the sequence (P62812 28-455) above
T2 sequence (P63080 26-473 partner): as the sequence (P63080 26-473 partner) above
Method: A method for determining TG in a sample was as follows: 20 mg to 30 mg of a sample was first weighed, a 5% NP40-containing lysis buffer was added, and a resulting mixture was homogenated and incubated in a metal bath at 95° C. for 5 min, which was repeated twice. A resulting homogenate was cooled to room temperature and then centrifuged at 15,000 rpm for 2 min to 3 min, and a resulting supernatant was pipetted for determination. A Biovision kit was used to determine TG. 2 μl of the supernatant was added to each well, and after a chromogenic reaction was completed, a value of each well was determined by a microplate reader. TG in the small intestinal tissue was quantified through a standard protein concentration; and a total amount of lipids excreted with the feces was calculated based on a measured value of the feces sample and a total mass of the sample at 24 h.
Similar to the above experiment, the rAAV-DIO-Gabrg2-shRNA (BrainVTA, China) was used to knock down Gabrg2 (a gene encoding the γ2 subunit of the GABAA receptor) in the DMV in an obese mouse model, and the rAAV-DIO-mCherry (BrainVTA, China) was used as a control group.

GABAA (α1β3γ2) receptor = target: T3, GABAA (α1β3γ2) receptor (Homo sapiens, UniProt P14867+P18507); assay: Bioelectric signal of 293S cell line with GABA and puerarin co-incubation; assay type: cell-based; settings: 0.5 μM GABA co-incubated with puerarin for 3 min to 5 min
T3 construct: expressed in transfected cells
T3 sequence (P14867 28-456): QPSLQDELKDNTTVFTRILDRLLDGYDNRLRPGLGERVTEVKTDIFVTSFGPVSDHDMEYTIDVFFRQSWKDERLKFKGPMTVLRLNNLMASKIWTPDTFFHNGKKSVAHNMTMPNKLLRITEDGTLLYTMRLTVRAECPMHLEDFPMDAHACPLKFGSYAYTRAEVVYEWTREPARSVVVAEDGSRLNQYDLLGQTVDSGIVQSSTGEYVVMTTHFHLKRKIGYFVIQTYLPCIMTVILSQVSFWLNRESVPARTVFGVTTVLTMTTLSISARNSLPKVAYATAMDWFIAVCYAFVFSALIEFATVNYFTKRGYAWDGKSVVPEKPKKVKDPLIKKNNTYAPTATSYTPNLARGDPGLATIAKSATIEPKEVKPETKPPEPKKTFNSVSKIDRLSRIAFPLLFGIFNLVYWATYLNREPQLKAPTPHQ
T3 sequence (P28472 26-473 partner): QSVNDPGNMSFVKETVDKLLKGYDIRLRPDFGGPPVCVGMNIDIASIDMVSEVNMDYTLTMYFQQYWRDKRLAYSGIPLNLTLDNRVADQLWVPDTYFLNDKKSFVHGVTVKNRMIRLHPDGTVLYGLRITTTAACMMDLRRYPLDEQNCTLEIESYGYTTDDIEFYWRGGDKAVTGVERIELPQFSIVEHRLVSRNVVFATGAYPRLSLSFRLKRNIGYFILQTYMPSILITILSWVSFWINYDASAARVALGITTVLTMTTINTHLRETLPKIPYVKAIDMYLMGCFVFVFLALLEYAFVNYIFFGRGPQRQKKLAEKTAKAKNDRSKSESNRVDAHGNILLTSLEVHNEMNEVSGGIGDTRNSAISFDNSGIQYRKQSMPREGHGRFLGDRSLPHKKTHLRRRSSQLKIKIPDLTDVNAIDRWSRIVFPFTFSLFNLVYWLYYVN
T3 sequence (P18507 40-475): as the sequence (P22723 39-474) above

[3] = target: T4, GABAA receptor in the DMV (Mus musculus, UniProt P22723+P62812); assay: Colocalization staining of puerarin probe with GABAA receptor on brain slices; settings: brain slice tissue, immunofluorescence staining
T4 construct: from tissue; host or cells: brain slice tissue (DMV)
T4 sequence (P62812 28-455): as the sequence (P62812 28-455) above
T4 sequence (P63080 26-473 partner): as the sequence (P63080 26-473 partner) above
T4 sequence (P22723 39-474): as the sequence (P22723 39-474) above

neurons in the DMV = assay: Electrophysiological whole-cell patch-clamp recording of brain slices; assay type: cell-based; settings: during puerarin incubation (concentration: 10 mM), current clamp, brain slices of obese mice
Method: Obese mouse models fed with a high-fat feed for 12 weeks were taken and myocardially perfused with an artificial cerebrospinal fluid (ACSF), and 200 μm to 300 μm-thick brainstem tissue slices were prepared by vibration slicing; and brain slices were incubated in oxygen at 35° C. for 1 h and then transferred to a patch-clamp system for whole-cell patch-clamp recording. Recorded neurons were selected according to the cellular morphology in the DMV, and a green-fluorescent dye was added to a pipette solution to label cells.

[4] = Puerarin group (control virus in DMV, puerarin i.p. daily), Day 0 baseline
[5] = Puerarin group vs control group
[6] = Puerarin group (control virus, puerarin i.p. 7 d)
[7] = Puerarin group (control virus, puerarin i.p. 7 d), mean

## O=c1c(-c2ccc(O)cc2)coc2c([C@@H]3O[C@H](CO)[C@@H](O)[C@H](O)[C@H]3O)c(O)ccc12 [Puerarin, puerarin]
Obese mouse model
  Number of c-fos fluorescence signals in the DMV brain region: smaller than that in the control group
[1]; Gα1 blocking group (Gabra1 shRNA virus in DMV, puerarin i.p. daily), Day 0 baseline
  Body weight curve change percentage: 0.00%
[1]; Gα1 blocking group (Gabra1 shRNA virus, puerarin i.p. daily), Day 2
  Body weight curve change percentage: 0.70% and 0.68% and 0.80% and 0.69% and 1.06% and 0.91% and 0.82% and 0.83%
[1]; Gα1 blocking group (tissue-specific knockdown of Gabra1, puerarin i.p.)
  c-fos staining of brain slices (DMV): would intervene in the inhibitory effect of puerarin on neurons in the DMV
[1]; [4]
  Body weight curve change percentage: 0.00%
[1]; [5]
  c-fos staining of brain slices (DMV): less than that of the control group
[2]; Gγ2 blocking group (Gabrg2 shRNA virus in DMV, puerarin i.p. daily), Day 0 baseline
  Body weight curve change percentage: 0.00%
[2]; Gγ2 blocking group (Gabrg2 shRNA virus, puerarin i.p. 7 d)
  Jejunal TG level: 1.1912 μmol/mg/protein and 1.5075 μmol/mg/protein and 1.6522 μmol/mg/protein and 1.1566 μmol/mg/protein and 1.0093 μmol/mg/protein
[2]; Gγ2 blocking group (Gabrg2 shRNA virus, puerarin i.p. 7 d), mean
  Jejunal TG level: 1.3034 μmol/mg/protein
[2]; Gγ2 blocking group (Gabrg2 shRNA virus, puerarin i.p. daily), Day 1
  Body weight curve change percentage: 0.82% and 0.55% and −0.82% and −0.55% and 0.79%
[2]; Gγ2 blocking group (Gabrg2 shRNA virus, puerarin i.p. daily), Day 1, mean
  Body weight curve change percentage: 0.16%
[2]; Gγ2 blocking group (Gabrg2 shRNA virus, puerarin i.p. daily), Day 2
  Body weight curve change percentage: 1.37% and −0.28% and 0.27% and 0.54% and −0.81%
[2]; Gγ2 blocking group (Gabrg2 shRNA virus, puerarin i.p. daily), Day 2, mean
  Body weight curve change percentage: 0.22%
[2]; Gγ2 blocking group (Gabrg2 shRNA virus, puerarin i.p. daily), Day 3
  Body weight curve change percentage: 0.55% and −1.13% and 0.54% and 1.08% and 1.57%
[2]; Gγ2 blocking group (Gabrg2 shRNA virus, puerarin i.p. daily), Day 3, mean
  Body weight curve change percentage: 0.52%
[2]; Gγ2 blocking group (Gabrg2 shRNA virus, puerarin i.p. daily), Day 4
  Body weight curve change percentage: 0.28% and −1.41% and 0.80% and 1.60% and 1.06%
[2]; Gγ2 blocking group (Gabrg2 shRNA virus, puerarin i.p. daily), Day 4, mean
  Body weight curve change percentage: 0.47%
[2]; Gγ2 blocking group (Gabrg2 shRNA virus, puerarin i.p. daily), Day 5
  Body weight curve change percentage: 0.55% and −0.56% and 2.62% and 3.41% and 0.79%
[2]; Gγ2 blocking group (Gabrg2 shRNA virus, puerarin i.p. daily), Day 5, mean
  Body weight curve change percentage: 1.36%
[2]; Gγ2 blocking group (Gabrg2 shRNA virus, puerarin i.p. daily), Day 6
  Body weight curve change percentage: 0.55% and −0.56% and 2.62% and 3.41% and 1.83%
[2]; Gγ2 blocking group (Gabrg2 shRNA virus, puerarin i.p. daily), Day 6, mean
  Body weight curve change percentage: 1.57%
[2]; Gγ2 blocking group (Gabrg2 shRNA virus, puerarin i.p. daily), Day 7
  Body weight curve change percentage: 0.82% and 0.00% and 2.37% and 3.16% and 2.09%
[2]; Gγ2 blocking group (Gabrg2 shRNA virus, puerarin i.p. daily), Day 7, mean
  Body weight curve change percentage: 1.69%
[2]; Gγ2 blocking group (tissue-specific knockdown of Gabrg2, puerarin i.p.)
  c-fos staining signal of neurons in the DMV: could intervene in the inhibitory effect of puerarin on neurons in the DMV
[2]; [4]
  Body weight curve change percentage: 0.00%
[2]; [6]
  Blood lipid level: 0.6408 mM and 0.7143 mM and 0.8673 mM and 0.7337 mM and 0.7380 mM
  Jejunal TG level: 0.9191 μmol/mg/protein and 0.8860 μmol/mg/protein and 0.8466 μmol/mg/protein and 0.9139 μmol/mg/protein and 0.7516 μmol/mg/protein
[2]; [7]
  Blood lipid level: 0.7388 mM
  Jejunal TG level: 0.8634 μmol/mg/protein
[2]; Puerarin group (control virus, puerarin i.p. daily), Day 1
  Body weight curve change percentage: −1.10% and −1.06% and −0.81% and −0.79% and 0.82%
[2]; Puerarin group (control virus, puerarin i.p. daily), Day 1, mean
  Body weight curve change percentage: −0.59%
[2]; Puerarin group (control virus, puerarin i.p. daily), Day 2
  Body weight curve change percentage: −0.82% and −1.60% and −0.81% and −1.06% and −1.11%
[2]; Puerarin group (control virus, puerarin i.p. daily), Day 2, mean
  Body weight curve change percentage: −1.08%
[2]; Puerarin group (control virus, puerarin i.p. daily), Day 3
  Body weight curve change percentage: −2.50% and −0.53% and −2.20% and −1.33% and −1.68%
[2]; Puerarin group (control virus, puerarin i.p. daily), Day 3, mean
  Body weight curve change percentage: −1.65%
[2]; Puerarin group (control virus, puerarin i.p. daily), Day 4
  Body weight curve change percentage: −3.07% and −2.14% and −2.76% and −1.87% and −0.83%
[2]; Puerarin group (control virus, puerarin i.p. daily), Day 5
  Body weight curve change percentage: −4.83% and −2.97% and −1.64% and −5.20%
[2]; Puerarin group (control virus, puerarin i.p. daily), Day 5, mean
  Body weight curve change percentage: −3.52%
[2]; Puerarin group (control virus, puerarin i.p. daily), Day 6
  Body weight curve change percentage: −5.13% and −4.10% and −3.05% and −5.54% and −3.41%
[2]; Puerarin group (control virus, puerarin i.p. daily), Day 6, mean
  Body weight curve change percentage: −4.24%
[2]; Puerarin group (control virus, puerarin i.p. daily), Day 7
  Body weight curve change percentage: −6.34% and −4.96% and −3.33% and −5.54% and −3.41%
[2]; Puerarin group (control virus, puerarin i.p. daily), Day 7, mean
  Body weight curve change percentage: −4.72%
[2]; [5]
  c-fos staining signal of neurons in the DMV: inhibited by puerarin
GABAA (α1β3γ2) receptor
  Chloride influx / bioelectric signal change: increased chloride ions would enter cells, causing hyperpolarization
[3]
  Distribution of puerarin probe and colocalization with GABAA receptor staining: enriched in the DMV and showed prominent colocalization with staining of the GABAA receptor
Neurons in the DMV
  Action potential discharge frequency of neurons in the DMV: significantly reduced
  Membrane potential of neurons in the DMV: slightly lower than the initial baseline
